Values quoted from earlier work as cited in patent US20200163955A1, “STERILE COMPOSITIONS OF INDACATEROL SUITABLE FOR NEBULIZATION” (GLENMARK SPECIALTY S.A., priority 2018, published 2020).

Conditions: water

aqueous solubility: very slightly soluble in water
SMILES: CCc1cc2c(cc1CC)CC(NC[C@H](O)c1ccc(O)c3[nH]c(=O)ccc13)C2 [Indacaterol, 5-[(1R)-2-[(5,6-diethyl-2,3-dihydro-1H-inden-2-yl)amino]-1-hydroxyethyl]-8-hydroxy-1H-quinolin-2-one]
